# From patent US4716225A, “Radioopaque sugar derivatives and a method of metabolic mapping using the same” (priority 1985, dated 1987)
# “Also recorded” adds a separate entry of the source. Read-outs that look alike come from different tables or passages of the source.
# Key:
# [1] = test system: blood/brain barrier saturable carrier of glucose; conditions: cited from earlier work
# [2] = Gross toxicology after intravenous (tail vein) injection in mice and rats; format: in vivo
# Description: (§1) Gross Toxicology. In order to be economical with the product, the gross toxicology of 6-IG was first determined in mice and rats. Enough material was injected in a volume of 0.1 ml into the tail vein to raise the blood concentration to 10^-3, 10^-2, and 10^-1 M, (0.02-2.11 g/kg). As an osmotic control, equimolar amounts of α-D-galactopyranose were injected into age matched animals.
# 6-IG was injected intravenously into 20 g male mice and equivalent amounts of α-D-galactopyranose were injected into age-matched controls. […] Three days post-injection, the animals were killed by ether inhalation and autopsied.
# [3] = Observation of side effects after intravenous injection in dogs; format: in vivo, Mongrel dogs
# Description: (§2) Mongrel dogs (40-50 lbs) were injected intravenously with a bolus of α-D-galactose sufficient to raise the blood concentration to a level of 10^-2 M. They were then required to walk from the animal facility to the CAT scanner, approximately 10 minutes, where they were anesthetized. Anesthesia was induced with thiamytal (lmg/kg) and the animal was intubated with a cuffed endotrachial tube. Following induction, anesthesia was maintained with a gaseous mixture of Halothane, nitrous oxide and oxygen.
# (§3) The time elapsed from injection to the start of the scan was approximately 1 hour. CAT scanning data were recorded on tape and served as a background control. Upon completion of scanning, the dog was recovered from anesthesia and returned to the animal facility, where routine care was resumed.
# (§4) This procedure was repeated one day later; however, 6-IG was injected to an initial blood concentration of 10^-2 M. Nine days and 33 days following the injection, repeat scans were performed to ensure that the contrast medium had cleared.
# brain [4] = experiment: CAT scanning of dog brain after injection of contrast medium; format: in vivo
# Description: as §2, §3, §4
# The dog's brains were scanned by CAT in sequential slices in 3 mm. increments. […] The arrow indicates the regions where contrast was observed.
# brain [5] = experiment: Feasibility calculation of brain concentration of 6-iodo-D-galactose; set-up: species or system human
# Description: It appears feasible to achieve such concentrations in, for example, brain tissue, by administering a sufficient amount of 6-iodo-D-galactose to obtain an initial blood concentration of about 10^-2 M in the patient.
# However, it is proposed to use 6-iodo-D-galactose or other such 2-, 5- or 6-substituted hexoses. […] But the uptake of galactose relative to 2-deoxyglucose is 31%. Therefore, it is estimated that the total brain concentration of 6-iodo-D-galactose is approximately 20%×0.31, or 6% of the initial blood concentration. When the initial blood concentration is 10^-2 M, final brain concentration would approximate 6×10^-4 M. To achieve this, it is necessary to inject approximately 15 grams of iodogalactose. [formula]
# An adult has a blood volume of approximately 4-5 L, so to achieve the desired concentration of 10^-2 M (moles per liter) of 6-iodo-galactosewhose formula weight is 290 g/mole will require:
# wt=(5 liter)(1 X10^-2 mole/liter)(290 g/mole)=14 g.
# Thus, the criterion of having a brain concentration within the range of 10^-4 to 10^-3 M is met. Although this concentration is the lower limit of detection, it should not deleteriously affect the clarity of the brain CAT scan. […]
# [6] = Observation of side effects after injection into mice, rats, and dogs; format: in vivo; conditions: in the concentrations described
# Description: This is the region associated with limb and tail movement in the dog. […] Thus, the accumulation can be made to be selective.
# as §1, §2
# brain [7] = conditions: 0.5 mg FDG injection, cited from earlier work
compound,measurement,setting,value
OC[C@H]1OC(O)C[C@@H](O)[C@@H]1O (stereo partly drawn) [2-deoxyglucose],crossing of blood/brain barrier,[1],cross the blood/brain barrier by the same saturable carrier as glucose
"O[C@@H]1[C@@H](O)[C@@H](O)O[C@H](CI)[C@@H]1O [6-IG, 6-iodo-6-deoxy-α-D-galactopyranose]",immediate effects of injection on the animals,"[2]; 20 g male mice, i.v., max 2.11 g 6-IG/kg or equivalent amount of α-D-galactopyranose",no apparent immediate effects on the animals
same,gross findings at autopsy,"[2]; mice, three days post-injection, i.v., max 2.11 g 6-IG/kg",no gross findings
same,apparent side effects,"[3]; dogs, i.v., initial blood concentration 10^-2 M",Neither the control nor the iodinated injection medium had any apparent side effects
same,"contrast accumulation in the cortical area, posterior portion of frontal lobe","brain [4]; 1 hour post-injection, initial blood concentration 10^-2 M",accumulated in the cortical area of the posterior portion of the frontal lobe within one hour after injection; also recorded: beginning of accumulation as early as 1 hour post-injection
same,contrast in pareital region and other areas of the brain,brain [4]; 9 days post-injection (FIG. 3),"no contrast is seen in the pareital lobe intracellular section shown in FIG. 3, nor in any other areas of the brain that were scanned; also recorded: no contrast medium has accumulated in that section of the brain"
same,"contrast accumulation in the cortical area, posterior portion of frontal lobe","brain [4]; 9 days post-injection, initial blood concentration 10^-2 M",greater contrast is seen in the same region 9 days post-injection; also recorded: greater contrast in the same cortical regions
same,clearance of contrast medium,"brain [4]; 33 days post-injection, initial blood concentration 10^-2 M",cleared completely
same,accumulation and clearance compared to FDG (PET),brain [4]; compared to Fluorodeoxyglucose,relatively slower
same,time of peak concentration,"brain [4]; dog brain, between 1 hour and 9 days post-injection",some time inbetween
same,clearance of the compound,"brain [4]; dog brain, present at nine days post injection",relatively slow
same,distribution of accumulation in brain,brain [4]; general statement on accumulation in dog brain,accumulates in areas of the brain that are metabolically hyperactive in response to normal stimuli
same,distribution of accumulation after digitization,"brain [4]; slice of FIG. 2C, 9 days post-injection, background subtracted",generally greatest in the cortical region
same,estimated total brain concentration as percent of initial blood concentration,brain [5]; calculated as 20%×0.31,~6%
same,concentration,"brain [5]; initial blood concentration 10^-2 M, read-out: estimated final brain concentration",~600 µM
same,obvious side effects,[6],do not produce any obvious side effects
"OC[C@H]1O[C@H](O)[C@H](O)[C@@H](O)[C@H]1O [α-D-galactopyranose, reference compound]",gross findings at autopsy,"[2]; in vivo, iv",no gross findings
same,immediate effects of injection on the animals,"[2]; in vivo, iv",no apparent immediate effects on the animals
same,apparent side effects,"[3]; dog, in vivo, iv",Neither the control nor the iodinated injection medium had any apparent side effects
same,uptake relative to 2-deoxyglucose,[1],31%
same,crossing of blood/brain barrier,[1]; same saturable carrier as glucose,cross the blood/brain barrier by the same saturable carrier as glucose
Fluorodeoxyglucose [FDG],brain concentration of FDG,brain [7]; after 40 minutes accumulation time,25 ng/cc
same,brain concentration as percent of initial blood concentration,"brain [7]; human, 40 min",20%
same,concentration,"brain [7]; read-out: molar brain concentration of FDG, after 40 minutes, brain cell volume 1 L",138 nM
